Where two headings read alike, the source gives them in different places. Starred links: 1 amine or outer side, 2 acyl side, 3 side chain; linkers in the order of their positions; H or OH if unused. Non-standard residues stand in square brackets, D forms with d. Residues, ends and D or L forms follow the SMILES beside them. Groups on a side chain read outwards from the residue. *: point of attachment. Phe(4-CH2NH2) = NCc1ccc(C[C@H](N)C(=O)O)cc1; C18 diacid = O=C(O)CCCCCCCCCCCCCCCCC(=O)*; C17 diacid = O=C(O)CCCCCCCCCCCCCCCC(=O)*; αMeW = C[C@](N)(Cc1c[nH]c2ccccc12)C(=O)O; C16 diacid = O=C(O)CCCCCCCCCCCCCCC(=O)*; γGlu = O=C(O)[C@H](CCC(=O)[*:2])N[*:1]; Met(O2) = CS(=O)(=O)CC[C@H](N)C(=O)O; Palmitoyl = CCCCCCCCCCCCCCCC(=O)*; AEEA = NCCOCCOCC(=O)O; Aib = CC(C)(N)C(=O)O
Legend:
[1] = target: T1, human GCGR (Homo sapiens, UniProt P47871); assay: cAMP activity assay, cells expressing human GCGR; type: cell-based; conditions: for EC50: cAMP production, cells expressing human GCGR, assay buffer with or without 20% human serum (not stated which); for hGCGR/hGLP1R (hTone): ratio of human GCGR EC50 to human GLP1R EC50
T1 construct: expressed in transfected cells; kept under Blasticidin and Hygromycin selection
T1 sequence (P47871 26-477): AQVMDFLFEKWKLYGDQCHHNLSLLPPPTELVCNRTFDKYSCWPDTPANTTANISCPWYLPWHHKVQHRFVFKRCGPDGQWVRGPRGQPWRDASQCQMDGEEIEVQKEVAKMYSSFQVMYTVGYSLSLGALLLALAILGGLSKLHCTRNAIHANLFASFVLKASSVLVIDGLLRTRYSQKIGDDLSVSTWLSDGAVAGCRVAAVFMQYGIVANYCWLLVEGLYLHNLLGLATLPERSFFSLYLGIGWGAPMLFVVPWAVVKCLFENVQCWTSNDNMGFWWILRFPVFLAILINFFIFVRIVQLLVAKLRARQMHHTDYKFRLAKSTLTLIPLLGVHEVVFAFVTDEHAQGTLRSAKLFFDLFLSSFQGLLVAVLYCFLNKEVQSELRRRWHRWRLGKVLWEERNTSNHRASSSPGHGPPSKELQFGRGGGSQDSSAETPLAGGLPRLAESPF
Experimental: (§1) Activity of the peptides at the Glucagon receptor (GCGR) and GLP-1 receptor (GLP1R) was measured in a cAMP activity assay. Peptides were dissolved in 100% DMSO and serially diluted to generate 10 point titrations. The peptide solutions were then transferred into 384-well assay plates (150 nL/well). […] Production of cAMP was determined using […] kits (DiscoverX) following manufacturer protocol. The plates were incubated for overnight at room temperature in the dark. Luminescence was measured using an EnVision Multilabel plate reader (Perkin Elmer). Native GLP-1 and Glucagon (Bachem) are used as control peptides. EC50 values were calculated using uses a 4 parameter logistic fit based on the Levenberg-Marquardt algorithm.

[2] = target: T2, human GLP1R (Homo sapiens, UniProt P43220); assay: cAMP activity assay, cells expressing human GLP1R; type: cell-based; conditions: cAMP production, assay buffer with or without 20% human serum (not stated which)
T2 construct: expressed in transfected cells; kept under Blasticidin and Hygromycin selection
T2 sequence (P43220 24-463): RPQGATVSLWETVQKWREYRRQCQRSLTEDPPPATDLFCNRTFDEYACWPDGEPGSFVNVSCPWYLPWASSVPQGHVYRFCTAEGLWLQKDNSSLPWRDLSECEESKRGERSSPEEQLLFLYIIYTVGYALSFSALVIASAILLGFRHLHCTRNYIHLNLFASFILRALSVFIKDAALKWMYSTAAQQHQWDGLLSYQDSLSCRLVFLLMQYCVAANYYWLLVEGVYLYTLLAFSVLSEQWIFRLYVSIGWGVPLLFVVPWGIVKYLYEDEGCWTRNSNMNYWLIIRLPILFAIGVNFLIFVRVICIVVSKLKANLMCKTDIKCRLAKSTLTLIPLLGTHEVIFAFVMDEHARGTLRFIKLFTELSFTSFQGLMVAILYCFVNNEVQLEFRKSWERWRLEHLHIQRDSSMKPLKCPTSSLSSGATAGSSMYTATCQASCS
Experimental: as §1

Row | EC50 ([1]; read-out: GCGR EC50 human) | hGCGR/hGLP1R (hTone) [1] | EC50 [2] | SMILES | EC50 ([1]; GCGR EC50 human)
1 | 0.595 nM | 0.7 | 0.866 nM | CC(C)C[C@H](NC(=O)[C@H](Cc1c[nH]c2ccccc12)NC(=O)[C@H](CCCCNC(=O)COCCOCCNC(=O)COCCOCCNC(=O)CC[C@H](NC(=O)CCCCCCCCCCCCCCCCC(=O)O)C(=O)O)NC(=O)[C@@H](NC(=O)[C@H](Cc1ccccc1)NC(=O)[C@H](CC(=O)O)NC(=O)[C@H](CCC(N)=O)NC(=O)[C@H](C)NC(=O)[C@H](C)NC(=O)[C@H](CCCNC(=N)N)NC(=O)C(C)(C)NC(=O)[C@H](CC(=O)O)NC(=O)[C@H](CC(C)C)NC(=O)[C@H](Cc1ccc(O)cc1)NC(=O)[C@H](CCCCN)NC(=O)[C@H](CO)NC(=O)[C@H](Cc1ccc(O)cc1)NC(=O)[C@H](CC(=O)O)NC(=O)[C@H](CO)NC(=O)[C@@H](NC(=O)[C@H](Cc1ccccc1)NC(=O)[C@@H](NC(=O)CNC(=O)[C@H](CCC(N)=O)NC(=O)C(C)(C)NC(=O)[C@@H](N)Cc1c[nH]cn1)[C@@H](C)O)[C@@H](C)O)C(C)C)C(=O)N[C@@H](CCS(C)(=O)=O)C(=O)N[C@@H](CC(=O)O)C(=O)N[C@H](C(N)=O)[C@@H](C)O [compound 68] (H-H[Aib]QGTFTSDYSKYLD[Aib]RAAQDFVK([AEEA-AEEA-γGlu-C18 diacid])WL[Met(O2)]DT-NH2) | 
2 |  | 3 |  | CC(C)C[C@H](NC(=O)[C@H](Cc1ccc(O)cc1)NC(=O)[C@H](CCCCN)NC(=O)[C@H](CO)NC(=O)[C@H](Cc1ccc(O)cc1)NC(=O)[C@H](CC(=O)O)NC(=O)[C@H](CO)NC(=O)[C@@H](NC(=O)[C@H](Cc1ccccc1)NC(=O)[C@@H](NC(=O)CNC(=O)[C@H](CCC(N)=O)NC(=O)C(C)(C)NC(=O)[C@@H](N)Cc1c[nH]cn1)[C@@H](C)O)[C@@H](C)O)C(=O)N[C@@H](CC(=O)O)C(=O)N[C@@H](C)C(=O)N[C@@H](CCCNC(=N)N)C(=O)N[C@@H](C)C(=O)N[C@@H](C)C(=O)N[C@@H](CCCCNC(=O)COCCOCCNC(=O)COCCOCCNC(=O)CC[C@H](NC(=O)CCCCCCCCCCCCCCC(=O)O)C(=O)O)C(=O)N[C@@H](CC(=O)O)C(=O)N[C@@H](Cc1ccccc1)C(=O)N[C@H](C(=O)N[C@@H](CCC(N)=O)C(=O)N[C@@](C)(Cc1c[nH]c2ccccc12)C(=O)N[C@@H](CC(C)C)C(=O)N[C@@H](CCS(C)(=O)=O)C(=O)N[C@@H](CC(=O)O)C(=O)N[C@H](C(N)=O)[C@@H](C)O)C(C)C [compound 78] (H-H[Aib]QGTFTSDYSKYLDARAAK([AEEA-AEEA-γGlu-C16 diacid])DFVQ[αMeW]L[Met(O2)]DT-NH2) | 

Continued, compound first:

Row | SMILES | EC50 ([1]; read-out: GCGR EC50 human) | hGCGR/hGLP1R (hTone) [1] | EC50 [2] | EC50 ([1]; GCGR EC50 human)
3 | CC(C)C[C@H](NC(=O)[C@H](Cc1ccc(O)cc1)NC(=O)[C@H](CCCCN)NC(=O)[C@H](CO)NC(=O)[C@H](Cc1ccc(O)cc1)NC(=O)[C@H](CC(=O)O)NC(=O)[C@H](CO)NC(=O)[C@@H](NC(=O)[C@H](Cc1ccccc1)NC(=O)[C@@H](NC(=O)CNC(=O)[C@H](CCC(N)=O)NC(=O)[C@@H](CO)NC(=O)[C@@H](N)Cc1c[nH]cn1)[C@@H](C)O)[C@@H](C)O)C(=O)N[C@@H](CC(=O)O)C(=O)N[C@@H](C)C(=O)N[C@@H](CCCNC(=N)N)C(=O)N[C@@H](C)C(=O)N[C@@H](C)C(=O)N[C@@H](CCCCNC(=O)COCCOCCNC(=O)COCCOCCNC(=O)CC[C@H](NC(=O)CCCCCCCCCCCCCCC(=O)O)C(=O)O)C(=O)N[C@@H](CC(=O)O)C(=O)N[C@@H](Cc1ccccc1)C(=O)N[C@H](C(=O)N[C@@H](CCC(N)=O)C(=O)N[C@@H](Cc1c[nH]c2ccccc12)C(=O)N[C@@H](CC(C)C)C(=O)N[C@@H](CCS(C)(=O)=O)C(=O)N[C@@H](CC(=O)O)C(=O)N[C@H](C(N)=O)[C@@H](C)O)C(C)C [compound 14] (H-H[dS]QGTFTSDYSKYLDARAAK([AEEA-AEEA-γGlu-C16 diacid])DFVQWL[Met(O2)]DT-NH2) | 0.04 nM | 0.03 | 1.13 nM | 
4 | CC(C)C[C@H](NC(=O)[C@H](Cc1ccc(O)cc1)NC(=O)[C@H](CCCCN)NC(=O)[C@H](CO)NC(=O)[C@H](Cc1ccc(O)cc1)NC(=O)[C@H](CC(=O)O)NC(=O)[C@H](CO)NC(=O)[C@@H](NC(=O)[C@H](Cc1ccccc1)NC(=O)[C@@H](NC(=O)CNC(=O)[C@H](CCC(N)=O)NC(=O)C(C)(C)NC(=O)[C@@H](N)Cc1c[nH]cn1)[C@@H](C)O)[C@@H](C)O)C(=O)N[C@@H](CC(=O)O)C(=O)N[C@@H](C)C(=O)N[C@@H](CCCNC(=N)N)C(=O)N[C@@H](C)C(=O)N[C@@H](C)C(=O)N[C@@H](CCCCNC(=O)COCCOCCNC(=O)COCCOCCNC(=O)CC[C@H](NC(=O)CCCCCCCCCCCCCCCC(=O)O)C(=O)O)C(=O)N[C@@H](CC(=O)O)C(=O)N[C@@H](Cc1ccccc1)C(=O)N[C@H](C(=O)N[C@@H](CCC(N)=O)C(=O)N[C@@H](Cc1c[nH]c2ccccc12)C(=O)N[C@@H](CC(C)C)C(=O)N[C@@H](CCS(C)(=O)=O)C(=O)N[C@@H](CC(=O)O)C(=O)N[C@H](C(N)=O)[C@@H](C)O)C(C)C [compound 47] (H-H[Aib]QGTFTSDYSKYLDARAAK([AEEA-AEEA-γGlu-C17 diacid])DFVQWL[Met(O2)]DT-NH2) |  | 1.30 |  | 
5 | CCCCCCCCCCCCCCCC(=O)N[C@@H](CCC(=O)NCCOCCOCC(=O)NCCOCCOCC(=O)NCc1ccc(C[C@H](NC(=O)[C@H](CC(=O)O)NC(=O)[C@H](CO)NC(=O)[C@@H](NC(=O)[C@H](Cc2ccccc2)NC(=O)[C@@H](NC(=O)CNC(=O)[C@H](CCC(N)=O)NC(=O)C(C)(C)NC(=O)[C@@H](N)Cc2c[nH]cn2)[C@@H](C)O)[C@@H](C)O)C(=O)N[C@@H](CO)C(=O)N[C@@H](CCCCN)C(=O)N[C@@H](Cc2ccc(O)cc2)C(=O)N[C@@H](CC(C)C)C(=O)N[C@@H](CC(=O)O)C(=O)N[C@@H](C)C(=O)N[C@@H](CCCNC(=N)N)C(=O)N[C@@H](C)C(=O)N[C@@H](C)C(=O)N[C@@H](CCC(N)=O)C(=O)N[C@@H](CC(=O)O)C(=O)N[C@@H](Cc2ccccc2)C(=O)N[C@H](C(=O)N[C@@H](CCC(N)=O)C(=O)N[C@@H](Cc2c[nH]c3ccccc23)C(=O)N[C@@H](CC(C)C)C(=O)N[C@@H](CCS(C)(=O)=O)C(=O)N[C@@H](CC(=O)O)C(=O)N[C@H](C(N)=O)[C@@H](C)O)C(C)C)cc1)C(=O)O [compound 13] (H-H[Aib]QGTFTSD[Phe(4-CH2NH2)]([AEEA-AEEA-γGlu-Palmitoyl])SKYLDARAAQDFVQWL[Met(O2)]DT-NH2) |  | 2.19 |  | 
6 | CC(C)C[C@H](NC(=O)[C@H](CC(C)C)NC(=O)[C@H](Cc1c[nH]c2ccccc12)NC(=O)[C@H](CCC(N)=O)NC(=O)[C@@H](NC(=O)[C@H](Cc1ccccc1)NC(=O)[C@H](CC(=O)O)NC(=O)[C@H](CCC(N)=O)NC(=O)[C@H](C)NC(=O)[C@H](C)NC(=O)[C@H](CCCNC(=N)N)NC(=O)C(C)(C)NC(=O)[C@H](CC(=O)O)NC(=O)[C@H](CC(C)C)NC(=O)[C@H](Cc1ccc(O)cc1)NC(=O)[C@H](CCCCN)NC(=O)[C@H](CO)NC(=O)[C@H](Cc1ccc(CNC(=O)COCCOCCNC(=O)COCCOCCNC(=O)CC[C@H](NC(=O)CCCCCCCCCCCCCCC(=O)O)C(=O)O)cc1)NC(=O)[C@H](CC(=O)O)NC(=O)[C@H](CO)NC(=O)[C@@H](NC(=O)[C@H](Cc1ccccc1)NC(=O)[C@@H](NC(=O)CNC(=O)[C@H](CCC(N)=O)NC(=O)C(C)(C)NC(=O)[C@@H](N)Cc1c[nH]cn1)[C@@H](C)O)[C@@H](C)O)C(C)C)C(=O)N[C@@H](C)C(=O)N[C@H](C(=O)N[C@@H](CCCCNC(=O)CC[C@H](N)C(=O)O)C(N)=O)[C@@H](C)O [compound 11] (H-H[Aib]QGTFTSD[Phe(4-CH2NH2)]([AEEA-AEEA-γGlu-C16 diacid])SKYLD[Aib]RAAQDFVQWLLATK(γGlu)-NH2) |  | 4.15 |  | 1.03 nM
7 | CC(C)C[C@H](NC(=O)[C@H](Cc1ccc(O)cc1)NC(=O)[C@H](CCCCN)NC(=O)[C@H](CO)NC(=O)[C@H](Cc1ccc(O)cc1)NC(=O)[C@H](CC(=O)O)NC(=O)[C@H](CO)NC(=O)[C@@H](NC(=O)[C@H](Cc1ccccc1)NC(=O)[C@@H](NC(=O)CNC(=O)[C@H](CCC(N)=O)NC(=O)[C@@H](CO)NC(=O)[C@@H](N)Cc1c[nH]cn1)[C@@H](C)O)[C@@H](C)O)C(=O)N[C@@H](CC(=O)O)C(=O)N[C@@H](C)C(=O)N[C@@H](CCCNC(=N)N)C(=O)N[C@@H](C)C(=O)N[C@@H](C)C(=O)N[C@@H](CCC(N)=O)C(=O)N[C@@H](CCCCNC(=O)COCCOCCNC(=O)COCCOCCNC(=O)CC[C@H](NC(=O)CCCCCCCCCCCCCCCCC(=O)O)C(=O)O)C(=O)N[C@@H](Cc1ccccc1)C(=O)N[C@H](C(=O)N[C@@H](CCC(N)=O)C(=O)N[C@@H](Cc1c[nH]c2ccccc12)C(=O)N[C@@H](CC(C)C)C(=O)N[C@@H](CC(C)C)C(=O)N[C@@H](CC(=O)O)C(=O)N[C@H](C(N)=O)[C@@H](C)O)C(C)C [compound 21] (H-H[dS]QGTFTSDYSKYLDARAAQK([AEEA-AEEA-γGlu-C18 diacid])FVQWLLDT-NH2) |  | 0.17 |  | 
